Consider one compound from patent publication US9902717B2, “Process of preparing potassium salt of Azilsartan medoxomil” (Unichem Laboratories Limited, priority 2015, dated 2018).

The data set can be described thus: Stability study of polymorph U of Azilsartan Kamedoxomil at 5±3° C. for 6 months. To be noted: for 01) Description White to off-white coloured powder / 02) Identification By HPLC: retention time of the major peak should correspond to Azilsartan Kamedoxomil Standard preparation / 03) Loss on drying (at 60° C. under vacuum for 3 hrs) NMT 1.0% w/w / 04) Related substances Method 1: By HPLC (by Area %) i) Azilsartan NMT 1.0% / 04) Related substances Method 1: By HPLC (by Area %) ii) Azilsartan ester NMT 0.3% / 04) Related substances Method 1: By HPLC (by Area %) iii) Impurity at RRT about 1.04 NMT 0.3% / 04) Related substances Method 1: By HPLC (by Area %) iv) Any individual unspecified impurity NMT 0.2% / 04) Related substances Method 1: By HPLC (by Area %) v) Total impurities NMT 2.5% / 04) Related substances Method 2: By GCHS i) Content of 2, 3 butanedione by GCHS: NMT 0.5% / 05) Assay by HPLC (On dried basis) NLT 97.5% w/w and NMT 102.0% w/w: stability testing at 5±3° C. In kind it is physicochemical.

For `CCOc1nc2cccc(C(=O)OCc3oc(=O)oc3C)c2n1Cc1ccc(-c2ccccc2-c2noc(=O)[nH]2)cc1.[K]` [polymorph U, (5-methyl-2-oxo-1,3-dioxo-4-yl)methyl-2-ethoxy-1-1{[2′-(5-oxo-4,5-dihydro-1,2,4-oxadiazol-3-yl)biphenyl-4yl]methyl}-1H-benzimidazole-7-carboxylate monopotassium salt], the “change in XRPD pattern (polymorphic change)” value (stability testing at 5±3° C. for 6 Months) is recorded as “no change”. Moreover, for the setting “6 M”, the “01) Description White to off-white coloured powder” value was “White”, the “02) Identification By HPLC: retention time of the major peak should correspond to Azilsartan Kamedoxomil Standard preparation” value is “Complies”, the “03) Loss on drying (at 60° C. under vacuum for 3 hrs) NMT 1.0% w/w” value is given as 0.26% w/w and the “04) Related substances Method 1: By HPLC (by Area %) i) Azilsartan NMT 1.0%” value came out at 0.18%. For the setting “6 M”, the “04) Related substances Method 1: By HPLC (by Area %) ii) Azilsartan ester NMT 0.3%” value is given as 0.01%, the “04) Related substances Method 1: By HPLC (by Area %) iii) Impurity at RRT about 1.04 NMT 0.3%” value was determined as 0.08%, the “04) Related substances Method 1: By HPLC (by Area %) iv) Any individual unspecified impurity NMT 0.2%” value is 0.03% and the “04) Related substances Method 1: By HPLC (by Area %) v) Total impurities NMT 2.5%” value came to 0.43%. In addition, for the setting “6 M”, the “04) Related substances Method 2: By GCHS i) Content of 2, 3 butanedione by GCHS: NMT 0.5%” value is 0.13%; the “05) Assay by HPLC (On dried basis) NLT 97.5% w/w and NMT 102.0% w/w” value came to 100.3% w/w. For the setting “Initial”, the “01) Description White to off-white coloured powder” value was “White”, the “02) Identification By HPLC: retention time of the major peak should correspond to Azilsartan Kamedoxomil Standard preparation” value is “Complies”, the “03) Loss on drying (at 60° C. under vacuum for 3 hrs) NMT 1.0% w/w” value amounted to 0.44% w/w and the “04) Related substances Method 1: By HPLC (by Area %) i) Azilsartan NMT 1.0%” value is 0.19%. For the same compound, where the note is “Initial”, the “04) Related substances Method 1: By HPLC (by Area %) ii) Azilsartan ester NMT 0.3%” value was 0.01%, the “04) Related substances Method 1: By HPLC (by Area %) iii) Impurity at RRT about 1.04 NMT 0.3%” value worked out at 0.09%, the “04) Related substances Method 1: By HPLC (by Area %) iv) Any individual unspecified impurity NMT 0.2%” value worked out at 0.03% and the “04) Related substances Method 1: By HPLC (by Area %) v) Total impurities NMT 2.5%” value is given as 0.56%. Also, where the note is “Initial”, the “04) Related substances Method 2: By GCHS i) Content of 2, 3 butanedione by GCHS: NMT 0.5%” value worked out at 0.13% w/w; the “05) Assay by HPLC (On dried basis) NLT 97.5% w/w and NMT 102.0% w/w” value was 101.7 w/w. Moreover, the Stability result (studied at 5±3° C.) is on record as “stable”.
